In patent publication US20240252660A1, “CARGO MOLECULE TRANSDUCTION DOMAIN RMMR1, VARIANT THEREOF, RECOMBINANT CARGO MOLECULE, AND METHOD FOR TRANSDUCING CARGO MOLECULE USING SAME” (REMEDI CO., LTD., priority 2021, published 2024):
Where no end group is shown, it is not given here.

Key:
Assay type in all cases: cell-based
[1] = test system: cells; experiment: FACS experiment to verify self-penetration efficacy of FITC peptides (summary statement); conditions: FITC-labelled peptide, cells not specified
Text: The present inventors synthesized FITC and conducted a FACS experiment to verify its self-penetration efficacy using the cell-penetrating peptide RMMR1 derived from the human MRPL15 protein.

[2] = test system: 3T3 cells; experiment: RMMR1-FITC synthetic peptide cell penetration efficiency (fluorescence value) in 3T3; conditions: 2.5 uM, 2 hours
Method: (§1) HaCaT, 3T3, and B16F10 cells were cultured in cell culture medium supplemented with 10% of fetal bovine serum (FBS) and antibiotic solution (100 units/ml of penicillin, 100 μg/ml of streptomycin) in DMEM medium. Cells were cultured under conditions maintained at 37° C., 95% humidity, and 5% CO2, and when the cells were 70-80% adhered to the culture dish, they were treated with trypsin-EDTA and subcultured. HaCaT cells were distributed and cultured from Professor Kim Tae Yoon of the College of Medicine, The Catholic University of Korea, 3T3 and B16F10 cells were distributed and cultured from the Seoul National University Cell Line Bank. RAW264.7 cells were distributed and cultured from the laboratory of Professor Kim Sang-Beom, College of Pharmacy, Sahmyook University.
(§2) In order to evaluate the cell permeability of RMMR1 in HaCaT, 3T3, B16F10 cells, 1×10^5 of HaCaT cells were attached to a 24-well plate 12 hours in advance. Thereafter, the cells were washed using serum-free DMEM medium and then treated with 2.5 uM of protein in serum-free medium for 2 hours. After 2 hours, the cells were washed a total of 3 times with serum-free medium, and then the cells were detached from the plate by treatment with 150 ul of trypsin, and then neutralized by adding 850 ul of serum-containing medium. […]

[3] = test system: B16F10 cells; experiment: RMMR1-FITC synthetic peptide cell penetration efficiency (fluorescence value) in B16F10; conditions: 2.5 uM, 2 hours
Method: as §1, §2

[4] = test system: RAW264.7 cells; experiment: Antigen-presenting cell penetration efficiency of FITC-attached peptide; conditions: 2.5 uM, 2 hours, FITC fluorescence
Method: as §1
In order to identify the penetration efficiency of RMMR1 into antigen-presenting cells, the transduction efficiency was confirmed using cell line RAW264.7 using a synthetic peptide attached with fluorescent FITC. In the case of cells without FITC attached, it is difficult to identify the permeability of the peptide, so attaching fluorescent FITC makes it easier to identify cell permeability. Each cell line was treated with FITC-attached peptides RMMR1-FITC (SEQ. NO. 1) and TAT-FITC at the same concentration of 2.5 uM for 2 hours.

Substance	cell penetration compared with HIV-Tat peptide (FITC, FACS) [1]	cell penetration level compared with control TAT-FITC peptide [2]	cell penetration level compared with control TAT-FITC peptide [3]	level of cell penetration compared with control TAT-FITC peptide [4]
ERRPRGRRRGRKC (listed as Homo sapiens) [RMMR1, 13 amino acid cargo molecule transduction domain derived from human MRPL15]	penetrated cells much better than the HIV-Tat peptide			
RMMR1-FITC: RMMR1 (SEQ ID NO: 1) synthetic peptide attached with fluorescent FITC (ERRPRGRRRGRKC; also: FITC label, attachment site not given here; listed as Homo sapiens)		significantly higher cell penetration level than the control TAT-FITC peptide	significantly higher cell penetration level than the control TAT-FITC peptide	higher level of cell penetration compared to the control TAT-FITC peptide
